Legend:
[1] = target: T1, human recombinant adrenergic α2A receptor (Homo sapiens, UniProt P08913); assay: Adrenergic α2A radioligand binding ([3H]MK-912); conditions: read-out: Adrenergic (0.1 μM) a2A, percent inhibition of specific binding; compound at 0.1 μM; 1 nM [3H]MK-912
T1 construct: expressed in transfected cells; host or cells: insect Sf9 cells
T1 sequence (P08913 1-465): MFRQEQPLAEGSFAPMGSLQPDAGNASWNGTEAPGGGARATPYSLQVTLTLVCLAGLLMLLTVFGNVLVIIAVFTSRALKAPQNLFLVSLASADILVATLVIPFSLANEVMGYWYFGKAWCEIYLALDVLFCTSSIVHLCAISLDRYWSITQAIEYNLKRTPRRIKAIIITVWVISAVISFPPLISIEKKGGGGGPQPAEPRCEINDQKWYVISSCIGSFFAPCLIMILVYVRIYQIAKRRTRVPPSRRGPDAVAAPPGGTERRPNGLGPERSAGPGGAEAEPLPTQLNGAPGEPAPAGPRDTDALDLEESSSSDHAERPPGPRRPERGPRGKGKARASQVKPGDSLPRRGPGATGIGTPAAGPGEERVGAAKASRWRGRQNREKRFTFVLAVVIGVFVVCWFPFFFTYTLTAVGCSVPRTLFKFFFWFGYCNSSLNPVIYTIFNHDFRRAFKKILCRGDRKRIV
Procedure: To evaluate in radioligand binding assays the activity of compounds of the invention, human recombinant adrenergic α2A receptor expressed in insect Sf9 cells (Uhlen, S. et al, J. Pharmacol. Exp. Ther. 271:1558, 1994) in a modified Tris-HCl buffer (50 mM Tris-HCl, pH 7.4, 12.5 mM MgCl2, 2 mM EDTA) was used. Compounds of invention were incubated with 1 nM [^3H]MK-912 for 60 min at 25° C. MK-912 is (2S-trans)-1,3,4,5′,6,6′,7,12b-octahydro-1′,3′-dimethyl-spiro[2H-benzofuro[2,3-a]quinolizine-2,4′(1′H)-pyrimidin]-2′(3′H)-one hydrochloride Non-specific binding was estimated in the presence of 10 μM WB-4101 (2-(2,6-Dimethoxyphenoxyethyl)aminomethyl-1,4-benzodioxane hydrochloride). Receptor proteins were filtered and washed, the filters were then counted to determine [^3H]MK-912 specifically bound. […] Compounds of the invention were tested in this biochemical assay and percent inhibition of specific binding was determined.

[2] = target: T2, human recombinant serotonin (5-Hydroxytryptamine) 5-HT2C receptor (Homo sapiens, UniProt P28335); assay: Serotonin 5-HT2C radioligand binding ([3H]Mesulergine); conditions: compound at 0.1 μM; read-out: Inhibition of ligand binding, Serotonin 5-HT2C (percent inhibition of specific binding)
T2 construct: expressed in transfected cells; host or cells: CHO-K1
T2 sequence (P28335 33-458): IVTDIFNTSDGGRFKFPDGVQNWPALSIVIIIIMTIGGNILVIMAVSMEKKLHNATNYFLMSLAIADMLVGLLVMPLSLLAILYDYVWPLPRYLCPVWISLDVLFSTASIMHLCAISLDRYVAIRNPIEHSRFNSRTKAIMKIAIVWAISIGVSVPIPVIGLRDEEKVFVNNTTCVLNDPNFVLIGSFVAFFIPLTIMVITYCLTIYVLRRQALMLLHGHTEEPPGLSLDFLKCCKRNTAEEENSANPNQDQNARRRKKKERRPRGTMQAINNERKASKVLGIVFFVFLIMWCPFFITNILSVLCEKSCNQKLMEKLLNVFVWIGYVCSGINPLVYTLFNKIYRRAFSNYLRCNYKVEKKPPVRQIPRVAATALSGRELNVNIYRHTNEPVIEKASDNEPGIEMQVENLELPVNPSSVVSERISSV
Procedure: Compounds of the invention were incubated with 1 nM [^3H]Mesulergine for 60 min at 25° C. Non-specific binding was estimated in the presence of 1 μM Mianserin. Receptor proteins were filtered and washed, the filters were then counted to determine [^3H]Mesulergine specifically bound.

[3] = target: T3, human recombinant serotonin (5-Hydroxytryptamine) 5-HT2A receptor (Homo sapiens, UniProt P28223); assay: Serotonin 5-HT2A radioligand binding ([3H]Ketanserin); conditions: compound at 0.1 μM; read-out: Inhibition of ligand binding, Serotonin 5-HT2A (percent inhibition of specific binding)
T3 construct: expressed in transfected cells; host or cells: CHO-K1
T3 sequence (P28223 whole entry): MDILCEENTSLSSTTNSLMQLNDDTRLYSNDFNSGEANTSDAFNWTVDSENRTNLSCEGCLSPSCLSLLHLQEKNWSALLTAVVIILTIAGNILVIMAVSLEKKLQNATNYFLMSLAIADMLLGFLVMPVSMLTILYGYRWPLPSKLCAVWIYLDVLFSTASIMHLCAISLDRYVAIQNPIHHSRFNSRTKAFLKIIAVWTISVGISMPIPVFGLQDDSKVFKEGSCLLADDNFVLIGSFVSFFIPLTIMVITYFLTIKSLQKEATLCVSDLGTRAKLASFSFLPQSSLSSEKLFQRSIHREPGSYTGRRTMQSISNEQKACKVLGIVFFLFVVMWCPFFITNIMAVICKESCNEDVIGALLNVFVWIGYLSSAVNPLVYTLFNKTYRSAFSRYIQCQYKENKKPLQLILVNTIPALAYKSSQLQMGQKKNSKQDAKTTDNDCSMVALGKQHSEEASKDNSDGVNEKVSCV
Procedure: Compounds of the invention were incubated with 0.5 nM [^3H]Ketanserin for 60 min at 25° C. Non-specific binding was estimated in the presence of 1 μM Mianserin. Receptor proteins were filtered and washed, the filters were then counted to determine [^3H]Ketanserin specifically bound.

Adrenergic α1B = target: T4, Adrenergic α1B (Rattus norvegicus, UniProt P15823); assay: Adrenergic α1B radioligand binding ([3H]Prazosin); conditions: read-out: Adrenergic (0.1 μM) a1B, percent inhibition of specific binding; compound at 0.1 μM; 0.25 nM [3H]Prazosin; Wistar Rat liver
T4 construct: rat adrenergic α1D receptor obtained from Wistar Rat liver; from tissue; host or cells: Wistar rat liver
T4 sequence (P15823 1-515): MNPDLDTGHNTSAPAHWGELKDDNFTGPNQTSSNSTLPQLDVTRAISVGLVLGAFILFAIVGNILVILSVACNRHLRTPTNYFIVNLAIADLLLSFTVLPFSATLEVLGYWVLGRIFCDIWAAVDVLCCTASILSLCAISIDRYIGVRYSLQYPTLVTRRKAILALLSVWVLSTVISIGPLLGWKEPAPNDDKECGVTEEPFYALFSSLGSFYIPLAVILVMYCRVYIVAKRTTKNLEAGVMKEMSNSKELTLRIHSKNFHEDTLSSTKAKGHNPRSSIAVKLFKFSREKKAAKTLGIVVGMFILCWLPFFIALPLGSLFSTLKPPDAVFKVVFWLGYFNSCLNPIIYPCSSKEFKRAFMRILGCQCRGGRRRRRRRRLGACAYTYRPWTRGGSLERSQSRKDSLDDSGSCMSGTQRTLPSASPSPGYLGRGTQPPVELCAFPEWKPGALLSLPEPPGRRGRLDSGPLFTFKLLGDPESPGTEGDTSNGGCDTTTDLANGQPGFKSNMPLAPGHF
Procedure: To evaluate in radioligand binding assays the activity of compounds of the invention, rat adrenergic α1D receptor obtained from Wistar Rat liver (Garcia-S'ainz, J. et al, Biochem. Biophys. Res. Commun. 186:760, 1992; Michel, A. et al, Br. J. Pharmacol. 98:883, 1989) in a modified Tris-HCl buffer (50 mM Tris-HCl buffer, pH 7.4, 0.5 mM EDTA) was used. Compounds of the invention were incubated with 0.25 nM [^3H]Prazosin for 60 min at 25° C. Non-specific binding was estimated in the presence of 10 μM phentolamine Receptor proteins were filtered and washed, the filters were then counted to determine [^3H]Prazosin specifically bound. […] Compounds of the invention were tested in this biochemical assay and percent inhibition of specific binding was determined.

[4] = target: T5, human recombinant adrenergic α2B receptor (Homo sapiens, UniProt P18089); assay: Adrenergic α2B radioligand binding ([3H]Rauwolscine); conditions: read-out: Adrenergic (0.1 μM) a2B, percent inhibition of specific binding; compound at 0.1 μM; 2.5 nM [3H]Rauwolscine
T5 construct: expressed in transfected cells; host or cells: CHO-K1
T5 sequence (P18089 1-450): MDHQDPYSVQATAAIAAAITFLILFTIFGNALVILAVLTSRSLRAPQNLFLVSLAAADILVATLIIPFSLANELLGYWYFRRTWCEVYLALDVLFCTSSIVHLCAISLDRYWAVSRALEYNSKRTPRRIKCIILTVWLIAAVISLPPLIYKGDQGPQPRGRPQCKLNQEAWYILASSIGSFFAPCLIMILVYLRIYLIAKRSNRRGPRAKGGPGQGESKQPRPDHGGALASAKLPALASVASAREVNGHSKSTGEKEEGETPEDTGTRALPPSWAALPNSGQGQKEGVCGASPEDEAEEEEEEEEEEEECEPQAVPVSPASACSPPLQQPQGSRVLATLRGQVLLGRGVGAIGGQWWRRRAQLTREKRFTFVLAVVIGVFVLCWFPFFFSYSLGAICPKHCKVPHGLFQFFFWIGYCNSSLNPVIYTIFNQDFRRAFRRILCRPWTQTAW
Procedure: To evaluate in radioligand binding assays the activity of compounds of the invention, human recombinant adrenergic α2B receptor expressed in Chinese hamster ovary (CHO) K1 cells (Uhlen, S. et al, Eur. J. Pharmacol. 343(1):93, 1998) in a modified Tris-HCl buffer (50 mM Tris-HCl, pH 7.4, 12.5 mM MgCl2, 1 mM EDTA, 0.2% BSA) was used. Compounds of the invention were incubated with 2.5 nM [^3H]Rauwolscine for 60 min at 25° C. Non-specific binding was estimated in the presence of 10 μM Prazosin. Receptor proteins were filtered and washed, the filters were then counted to determine [^3H]Rauwolscine specifically bound. […] Compounds of the invention were tested in this biochemical assay and percent inhibition of specific binding was determined.

Structure (SMILES)	inhibition at 0.1 µM [1] [%]	inhibition at 0.1 µM [2] [%]	inhibition at 0.1 µM [3] [%]	inhibition at 0.1 µM (Adrenergic α1B) [%]	inhibition at 0.1 µM [4] [%]
Cc1ccc2c(c1)c1c(n2-c2ccccc2-c2ccc3c(ccn3C)c2)CCN(C)C1 [Compound No. 85, 2,8-dimethyl-5-(2-(1-methyl-1H-indol-5-yl)phenyl)-2,3,4,5-tetrahydro-1H-pyrido[4,3-b]indole]	94	50	49	–	–
Cc1ccc2c(c1)c1c(n2-c2cscc2-c2ccc3cnccc3c2)CCN(C)C1 [Compound No. 68]	90	10	35	–	–
Cc1ccc2c(c1)c1c(n2-c2cscc2-c2ccc3c(ccn3C)c2)CCN(C)C1 [Compound 33]	100	49	39	52	–
Cc1ccc2c(c1)c1c(n2-c2cscc2-c2ccc(S(C)(=O)=O)cc2)CCN(C)C1 [Compound No. 76]	90	24	30	–	–
COc1ccc(-c2cscc2-n2c3c(c4cc(C)ccc42)CN(C)CC3)cc1 [Compound 37]	94	81	59	–	–
Cc1csc(-c2cscc2-n2c3c(c4cc(C)ccc42)CN(C)CC3)c1 [Compound 50]	93	92	86	–	–
CC(=O)Nc1ccc(-c2ccc(-n3c4c(c5cc(C)ccc53)CN(C)CC4)nc2)cn1 [Compound No. 139, N-(6′-(2,8-dimethyl-3,4-dihydro-1H-pyrido[4,3-b]indol-5(2H)-yl)-3,3′-bipyridin-6-yl)acetamide]	–	65	64	–	–
Cc1cc(C)c2c(c1)c1c(n2-c2ccc3ncccc3c2)CCN(C)C1 [Compound 48]	–	47	13	–	–
Cc1ccc2c(c1)c1c(n2-c2cscc2-c2ccc(C)s2)CCN(C)C1 [Compound No. 79]	92	92	77	–	106
Cc1ccc2c(c1)c1c(n2-c2ccc3c(c2)CCN(C=O)C3)CCN(C)C1 [Compound No. 77, 6-(2,8-dimethyl-1,2,3,4-tetrahydro-pyrido[4,3-b]indol-5-yl)-3,4-dihydro-1H-isoquinoline-2-carbaldehyde]	–	51	36	–	–
Cc1ccc2c(c1)c1c(n2-c2ccc(-c3ccc(F)cc3)cn2)CCN(C)C1 [Compound No. 140, 5-(5-(4-fluorophenyl)pyridin-2-yl)-2,8-dimethyl-2,3,4,5-tetrahydro-1H-pyrido[4,3-b]indole]	–	100	104	–	–
Cc1ccc2c(c1)c1c(n2-c2cccc(-c3ccc(S(N)(=O)=O)cc3)c2)CCN(C)C1 [Compound No. 158, 3′-(2,8-dimethyl-3,4-dihydro-1H-pyrido[4,3-b]indol-5(2H)-yl)biphenyl-4-sulfonamide]	–	47	91	–	–
Cc1ccc2c(c1)c1c(n2-c2cccc(-c3cnc(N(C)C)nc3)c2)CCN(C)C1 [Compound 42, 5-(3-(2,8-dimethyl-3,4-dihydro-1H-pyrido[4,3-b]indol-5(2H)-yl)phenyl)-N,N-dimethylpyrimidin-2-amine]	–	32	62	–	–
Cc1ccc2c(c1)c1c(n2-c2cccc(-c3ccc4[nH]cnc4c3)c2)CCN(C)C1 [Compound 54, 5-(3-(1H-benzo[d]imidazol-5-yl)phenyl)-2,8-dimethyl-2,3,4,5-tetrahydro-1H-pyrido[4,3-b]indole]	–	21	92	–	–
Cc1ccc2c(c1)c1c(n2-c2cccc3ccncc23)CCN(C)C1 [Compound 58, 5-(isoquinolin-8-yl)-2,8-dimethyl-2,3,4,5-tetrahydro-1H-pyrido[4,3-b]indole]	–	81	70	–	–
Cc1ccc2c(c1)c1c(n2-c2cscc2-c2ccc(O)nc2)CCN(C)C1 [Compound 49]	–	19	18	–	–
Cc1ccc2c(c1)c1c(n2-c2cccc(-c3ccc4c(ccn4C)c3)c2)CCN(C)C1 [Compound 53, 2,8-dimethyl-5-(3-(1-methyl-1H-indol-5-yl)phenyl)-2,3,4,5-tetrahydro-1H-pyrido[4,3-b]indole]	–	47	89	–	–
Cc1ccc2c(c1)c1c(n2-c2ccc(-c3cccnc3)cn2)CCN(C)C1 [Compound No. 133, 5-(3,3′-bipyridin-6-yl)-2,8-dimethyl-2,3,4,5-tetrahydro-1H-pyrido[4,3-b]indole]	–	92	86	–	–
Cc1ccc2c(c1)c1c(n2-c2ccc3ccncc3c2)CCN(C)C1 [Compound No. 74, 5-(isoquinolin-7-yl)-2,8-dimethyl-2,3,4,5-tetrahydro-1H-pyrido[4,3-b]indole]	–	51	34	–	–
Cc1ccc2c(c1)c1c(n2-c2cccc(-c3ccc(C)nc3)c2)CCN(C)C1 [Compound 60, 2,8-dimethyl-5-(3-(6-methylpyridin-3-yl)phenyl)-2,3,4,5-tetrahydro-1H-pyrido[4,3-b]indole]	–	53	102	–	–
Cc1cc(C)c2c(c1)c1c(n2-c2cccc3ncccc23)CCN(C)C1 [Compound 47]	–	32	1	–	–
Cc1ccc2c(c1)c1c(n2-c2cscc2-c2cnn(C)c2)CCN(C)C1 [Compound 30]	–	84	92	–	–
